Assay results taken from patent US20260265265A1, “NOVEL BENZIMIDAZOLONE DERIVATIVE COMPOUND AS AUTOTAXIN INHIBITOR” (LG CHEM, LTD., priority 2023, published 2026).
pIC50: −log10 of the molar value.

Target: T1, Recombinant Human ENPP-2/Autotaxin (Homo sapiens, UniProt Q13822)
T1 construct: purchased R&D systems 5255-EN
Test: LysoPLD activity measurement (autotaxin enzyme inhibition, choline release, TOOS reagent)
Format: biochemical
Conditions: LysoPLD inhibitory activity; substrate 14:0 LysoPC; absorbance at 555 nm
Outline: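 Enzyme and compound were preincubated for 30 min before adding 14:0 LysoPC substrate, diluted to 300 μM, for 90 minutes at 37° C. The choline product was quantified colorimetrically with TOOS reagent. Wells without compound held 1% DMSO.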

pIC50	Compound
> 8.00	CC1(c2ccc(-n3c(=O)n(C4(c5cccc(C(=O)O)c5)CC4)c4ccc(Cl)cc43)cc2)COC1 [Example 247, 3-(1-(5-chloro-3-(4-(3-methyloxetan-3-yl)phenyl)-2-oxo-2,3-dihydro-1H-benzo[d]imidazol-1-yl)cyclopropyl)benzoic acid]
> 8.00	O=C(O)c1cccc(C2(n3c(=O)n(-c4ccc(C5=CCOC5)cc4)c4cc(Cl)ccc43)CC2)c1F [Example 123, 3-(1-(5-chloro-3-(4-(2,5-dihydrofuran-3-yl)phenyl)-2-oxo-2,3-dihydro-1H-benzo[d]imidazol-1-yl)cyclopropyl)-2-fluorobenzoic acid]
6.00 to 7.00	O=C(O)c1cccc(Cn2c(=O)n(-c3ccc(C4CCN(C(=O)C5CCC5)CC4)cc3)c3cc(Cl)ccc32)c1 [Example 101, 3-((5-chloro-3-(4-(1-(cyclobutanecarbonyl)piperidin-4-yl)phenyl)-2-oxo-2,3-dihydro-1H-benzo[d]imidazol-1-yl)methyl)benzoic acid]
7.00 to 8.00	CS(=O)(=O)c1ccc(-n2c(=O)n(C3(c4cccc(C(=O)O)c4)CC3)c3ncc(Cl)cc32)cc1 [Example 227, 3-(1-(6-chloro-1-(4-(methylsulfonyl)phenyl)-2-oxo-1,2-dihydro-3H-imidazo[4,5-b]pyridin-3-yl)cyclopropyl)benzoic acid]
> 8.00	O=C(O)c1cccc(C2(n3c(=O)n(-c4ccc(C(=O)N5CCC(F)(F)C5)cc4)c4cc(Cl)ccc43)CC2)c1 [Example 130, 3-(1-(5-chloro-3-(4-(3,3-difluoropyrrolidine-1-carbonyl)phenyl)-2-oxo-2,3-dihydro-1H-benzo[d]imidazol-1-yl)cyclopropyl)benzoic acid]
> 8.00	CC(C)(CO)c1ccc(-n2c(=O)n(C3(c4cccc(C(=O)O)c4)CC3)c3ccc(Cl)cc32)cc1 [Example 218, 3-(1-(5-chloro-3-(4-(1-hydroxy-2-methylpropan-2-yl)phenyl)-2-oxo-2,3-dihydro-1H-benzo[d]imidazol-1-yl)cyclopropyl)benzoic acid]
7.00 to 8.00	O=C(O)c1cccc(Cn2c(=O)n(-c3ccc(C4=CCOCC4)cc3)c3cc(Cl)ccc32)c1 [Example 104, 3-((5-chloro-3-(4-(3,6-dihydro-2H-pyran-4-yl)phenyl)-2-oxo-2,3-dihydro-1H-benzo[d]imidazol-1-yl)methyl)benzoic acid]
7.00 to 8.00	O=C(O)c1cccc(C2(n3c(=O)n(-c4ccc(Cn5cnc(C(F)(F)F)c5)cc4)c4cc(Cl)ccc43)CC2)c1 [Example 237, 3-(1-(5-chloro-2-oxo-3-(4-((4-(trifluoromethyl)-1H-imidazol-1-yl)methyl)phenyl)-2,3-dihydro-1H-benzo[d]imidazol-1-yl)cyclopropyl)benzoic acid]
> 8.00	O=C(O)c1cccc(C2(n3c(=O)n(-c4ccc(C(=O)N5CCC(F)(F)C5)cc4)c4cc(Cl)ccc43)CC2)c1F [Example 132, 3-(1-(5-chloro-3-(4-(3,3-difluoropyrrolidine-1-carbonyl)phenyl)-2-oxo-2,3-dihydro-1H-benzo[d]imidazol-1-yl)cyclopropyl)-2-fluorobenzoic acid]
7.00 to 8.00	O=C(O)c1cccc(Cn2c(=O)n(-c3ccc(C4=CCOC4)cc3)c3cc(Cl)ccc32)c1F [Example 110, 3-((5-chloro-3-(4-(2,5-dihydrofuran-3-yl)phenyl)-2-oxo-2,3-dihydro-1H-benzo[d]imidazol-1-yl)methyl)-2-fluorobenzoic acid]
6.00 to 7.00	O=C(O)c1cccc(C2(n3c(=O)n(-c4ccc(C56CC7CC(CC(C7)C5)C6)cc4)c4cc(Cl)ccc43)CC2)c1 [Example 179, 3-(1-(3-(4-((3r,5r,7r)-adamantan-1-yl)phenyl)-5-chloro-2-oxo-2,3-dihydro-1H-benzo[d]imidazol-1-yl)cyclopropyl)benzoic acid]
> 8.00	O=C(O)c1cccc(C2(n3c(=O)n(-c4ccc(N5CCC(F)(F)CC5)cc4)c4cc(Cl)ccc43)CC2)c1 [Example 160, 3-(1-(5-chloro-3-(4-(4,4-difluoropiperidin-1-yl)phenyl)-2-oxo-2,3-dihydro-1H-benzo[d]imidazol-1-yl)cyclopropyl)benzoic acid]
